Laboratory results from patent publication US9212204B2, “Treatment of rett syndrome using glycyl-L-2-methylprolyl-L-glutamic acid” (priority 2011, dated 2015).
Non-standard residues stand in square brackets, D forms with d. Residues, ends and D or L forms follow the SMILES beside them. αMeP = C[C@@]1(C(=O)O)CCCN1

How the values were obtained:
[1] = system: heterozygous Shank3-deficient mice; test: Shank3-deficient mouse model, behavioral analyses; assay type: in vivo; conditions: 15 or 60 mg/kg oral b.i.d. for 14 days
From the text: Heterozygous mice generated by crossing wild-type mice with heterozygotes are used in this example to best model the haploinsufficiency of Shank3, responsible for 22q13 deletion syndrome.
1 to 3 month old wild type and heterozygous Shank3-deficient mice are divided into 4 treatment groups: placebo treated wild-type, placebo treated Shank3-deficient group and two Shank3-deficient G-2-MePE treated groups. The animals are given placebo (water) or G-2-MePE formulated in water administered orally, b.i.d for 14 days. G-2-MePE is administered at two doses: 15 or 60 mg/kg.
Behavioral assessments are made at several, time points, and include analysis of social interactions and ultrasonic social communication, in line with the methodology described by Bozdagi et al. Briefly, male-female social interactions in each treatment group are evaluated. […] Videos from the male subjects are subsequently scored by an investigator uninformed of the subject's genotype and treatment group on measures of nose-to-nose sniffing, nose-to-anogenital sniffing and sniffing of other body regions, using Noldus Observer software (Noldus Information Technology, Leesburg, Va., USA). Ultrasonic vocalizations are identified manually by two highly trained investigators blinded to genotype/treatment group information, and summary statistics are calculated using the Avisoft package. […]

RTT iPSC-derived neurons = test: In vitro human model of Rett Syndrome, iPSC-derived neurons; assay type: cell-based; parameters: glutamatergic synapse numbers: dose or concentration left out as unconfirmed
From the text: To test the effects of G-2-MePE on neuronal morphology, we used an in vitro model of RTT described in Marchetto et al., A model for neural development and treatment of Rett syndrome using human induced pluripotent stem cells, Cell 143:527-539 (2010) (including supplemental information). The model uses induced pluripotent stem cells (iPSCs) generated from fibroblasts of human RTT patients carrying different MeCP2 mutations.
RTT fibroblasts (carrying 4 distinct MeCP2 mutations) and control fibroblasts are generated from explants of dermal biopsies. The shRNA against target MeCP2 gene is cloned into the LentiLox3.7 lentivirus vector (as described in Marchetto et al.). The fibroblasts are infected with retroviral reprogramming vectors (Sox2, Oct4, c-Myc and Klf4), Two days after infection, fibroblasts are plated on mitotically inactivated mouse embryonic fibroblasts with hESC medium. After 2 weeks, iPSC colonies that emerge from the background of fibroblasts are manually picked and transferred to feeder-free conditions on matrigel-coated dishes (BD) using embryonic stem cell culture media mTeSR™ (Stem Cell Technologies) and passaged manually. Gene expression profiles of the generated clones are measured using human genome Affymetrix Gene Chip™ arrays to confirm that reprogramming is successful.
To obtain neural progenitor cells (NPCs), embryoid bodies (EBs) are formed by mechanical dissociation of cell clusters and plating onto low-adherence dishes in hESC medium without FGF2 for 5-7 days. After that, EBs are plated onto poly-ornithine/laminin-coated dishes in DMEM/F12 plus N2 medium (serum-free supplement for growth and expression of post-mitotic cells). […]
Cells are fixed in 4% paraformaldehyde and permeabilized with 0.5% Triton-X100 in PBS. […] Fluorescent signals are detected using a Zeiss inverted microscope and images are processed with Photoshop CS3. The following primary antibodies are used: TRA-1-60, TRA-1-81 (1:100), Nanog and Lin28 (1:500), human Nestin (1:100), Tuj-1 (1:500), Map2 (1:100); meCP2 (1:1000; VGLUT1 (1:200), Psd95 (1:500), GFP (1:200), Sox1 (1:250), Mushasil (1:200) and me3H3K27 (1:500). Cell soma size is measured using suitable software (e.g. ImageJ) after identification of neurons using the Syn::EGFP™. The morphologies of neuronal dendrites and spines are studied from an individual projection of z-stacks optical sections and scanned at 0.5 um increments that correlate with the resolution valued at z-plane. Each optical section is the result of 3 scans at 500 lps followed by Kalman filtering. For synapse quantification, images are taken by a z-step of 1 um using Biorad radiance 2100™ confocal microscope. Synapse quantification is done blinded to genotype. Only VGLUT1 puncta along Map2-positive processes are counted. […]

`C[C@@]1(C(=O)N[C@@H](CCC(=O)O)C(=O)O)CCCN1C(=O)CN` [Example G-2-MePE, Glycyl-L-2-methylprolyl-L-glutamic acid] (H-Gly-[αMeP]-Glu-OH) was tested, and the “cumulative duration of total social sniffing” value ([1]; vs placebo treated Shank3-deficient group) was “significant increase”, the “number of ultrasonic vocalizations” value ([1]; vs placebo treated mutant group) was “increased number” and the “frequency and amplitude of spontaneous post-synaptic currents” value (RTT iPSC-derived neurons; 1 week treatment) was “normalizes”. The “frequency of calcium transients” value (RTT iPSC-derived neurons; 1 week treatment) was “normalizes”, the VGLUT1 puncta number (RTT iPSC-derived neurons; all concentrations, 1 week) was “increase” and the glutamatergic synapse numbers (RTT iPSC-derived neurons; for 1 week, vs non-treated RTT controls) was “significant increase”.
